Assay results from patent US20250049776A1, “AUTOPHAGY INDUCING COMPOUNDS AND USES THEREOF, IN PARTICULAR FOR A SYSTEMIC TREATMENT OF DISEASES AND CONDITIONS” (Samsara Therapeutics Inc., priority 2021, published 2025).

Columns and labels:
[1] = system: Human osteosarcoma U20S cells; assay: Assay to measure lysosome and autolysosome formation (acidic vesicle formation, LysoView/LysoTracker staining); assay type: cell-based; conditions: for increase in acidic vesicle formation: U20S cells, relative to DMSO-treated control (10 μM); for activation at 0.8 µM: Homo sapiens, U2OS cells, concentration of 0.8 μM, read-out: Activity (percentage increase in acidic vesicle formation over the DMSO-treated control), Table 2
Procedure, shortened: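 U2OS cells treated with compounds in DMSO for 24 h, then stained 45 min at 37 °C with 1× LysoView 633 or 50 nM LysoTracker Deep Red, with Hoechst nuclear counterstain. Live-cell fluorescence imaging at 37 °C; acidic vesicle formation judged against DMSO-treated control.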

[2] = system: SH-SY5Y cells; assay: Acidic vesicle formation in SH-SY5Y cells (LysoTracker Deep Red); assay type: cell-based; conditions: 24 hours
Description: This is evidence for significant stimulation of autophagy by this compound under these conditions. A brief description of the procedure is outlined here: • Day 1: Cells were seeded at 15K cells/well in the middle 60 wells of 6×96 well Cellvis imaging plates • Day 2: Media was replaced with 90 μl of DMEM/F12 (+10% FBS/1% P/S) containing NucBlue Live and the cells were treated with 10 μl of compound (10× concentrated) in triplicate for 24 hours. • Day3: Treatment was removed and cells were incubated for 30 minutes with LysoTracker™ Deep Red dye. Cells were washed twice with media and immediately imaged on EVOS M7000 at x20 (6 images per well, 30 minutes imaging time/plate). Images were analysed using Celleste Image analysis software.

[3] = system: U2OS cell line stabling expressing RFP-eGFP-hLC3b; assay: Tandem reporter assay (autophagic flux, RFP-only puncta); assay type: cell-based; conditions: Homo sapiens, RFP-only puncta as percentage of DMSO-treated control, 24 hours; for activity at 1 µM: read-out: Autolysosome % DMSO activity (compound concentration of 1 μM); for activity at 10 µM: read-out: Autolysosome % DMSO activity (compound concentration of 10 μM)
Description: Selected compounds of this invention were also assessed for their ability to stimulate autophagy using a U20S cell line stabling expressing RFP-eGFP-hLC3b (a tandem reporter cell line). During the process of autophagy, the cargo to be degraded is first enveloped by organelles called autophagosomes. These autophagosomes then fuse with lysosomes, causing them to become acidified and their digestive enzymes to become activated. The term “autophagic flux” is used to represent the dynamic process of autophagy: autophagic flux refers to the whole process of autophagy, including autophagosome formation, maturation, fusion with lysosomes, subsequent breakdown and the release of macromolecules back into the cytosol (Zhang X J, Chen S, Huang K X, Le W D. Why should autophagic flux be assessed? Acta Pharmacol Sin. 2013 May; 34(5): 595-9. doi: 10.1038/aps.2012.184. Epub 2013 Mar. 11). Compounds that stimulate autophagic flux stimulate the dynamic process of autophagy (the whole process of autophagy).
LC3b is a protein found in the membrane of autophagosomes which has been used to generate genetic reporters of autophagy in cells. In these systems a tandem fusion of LC3b is engineered with two fluorescent proteins of different wavelengths: one which is acid sensitive (for example eGFP, which fluoresces green) and the other which is acid insensitive (for example RFP, which fluoresces red). Cells expressing RFP-eGFP-hLC3b can be examined using fluorescent microscopy: the autophagosomes present will fluoresce in both channels (either yellow in an overlay of both channels or puncta that are present in both the individual red and green channels) but the autolysosomes present will fluoresce in the RFP (red) channel only. Using a fluorescent microscope, the number of autophagosomes and autolysosomes can be counted, allowing for the monitoring of both the induction of autophagy (total puncta count) and the rate of autophagic flux (ratio of red-only to red-and-green puncta). The influence of small molecules on autophagy induction and flux can be assessed using this system by comparison to a non-treated control.
Representative Procedure: Human osteosarcoma U2OS cells stably expressing RFP-eGFP-hLC3b were seeded (10,000 cells/well) into a 96-well glass-bottom plate (Cell Carrier Ultra, Perkin Elmer) in DMEM Glutamax media (Gibco) supplemented with 10% Fetal Bovine Serum (FBS) and antibiotics (100 u/ml penicillin, 100 μg/ml streptomycin, Invitrogen), then incubated overnight in a humified atmosphere at 37° C. and 5% CO2. The cells were then treated with the compounds of interest, dissolved in DMSO, in a duplicated 5- or 10-point dose-response. 8 wells were treated with an equivalent volume of DMSO, 4 with 0.3 μM torin-1 as a positive control (MCE) and 4 wells with 0.4 μM torin-1 plus 0.2 μM bafilomycin (MCE) as a control for flux inhibition. The cells were returned to the incubator and the treatment continued for 24 hours. After treatment, the media was aspirated off and the cells fixed with a solution of 4% formaldehyde+1% glutaraldehyde (Sigma) in dPBS (plus magnesium and calcium, Gibco).
Fixation was allowed to proceed for 15 minutes at room temperature then the fixative solution discarded and replaced with PBS (Gibco) plus Hoescht 33342 ([…], Sigma). After 30 minutes the plates were imaged on an Opera Phenix confocal microscope (Perkin-Elmer) using a 40× water objective, collecting using DAPI, mCherry and GFP channels. Cells were detected based upon the staining of their nuclei with DAPI using the Harmony image analysis software (Perkin-Elmer) and the number of autophagosomes (GFP and RFP puncta) and autolysosomes (RFP only puncta) per cell were counted using the spot picking function within the software.

[4] = system: dopaminergic Tyrosine hydroxylase (TH)-positive neurons injured with MPTP; assay: Cellular model of Parkinson's disease (MPTP/MPP+ injury of primary mesencephalic neurons); assay type: cell-based, Rat; conditions: concentrations of 10 μM
From the text: This model (run by Neuro-Sys SAS, France) is based on a primary culture of dopaminergic Tyrosine hydroxylase (TH)-positive neurons injured with the dopaminergic neurons-specific toxin (DA-toxin) 1-methyl-4-phenyl-1,2,3,6 tetrahydropyridine (MPTP, a prodrug of MPP*) (Dauer and Przedborski, 2003). Any substances reducing DA-toxin neurotoxicity may be useful as a new therapeutic agent for the treatment or prevention of PD.
Primary culture of mesencephalic neurons: Rat dopaminergic neurons were cultured as described by Visanji et al., 2008 and Callizot et al., 2019. Briefly, pregnant female rat (Wistar) of 15 days of gestation were killed using a deep anesthesia with CO2 chamber and a cervical dislocation. The midbrains obtained from 15-day-old rat embryos (Janvier, France) were dissected under a microscope. The embryonic midbrains will be removed and placed in ice-cold medium of Leibovitz (L15) containing 2% of Penicillin-Streptomycin (PS) and 1% of bovine serum albumin (BSA). The ventral portion of the mesencephalic flexure, a region of the developing brain rich in dopaminergic neurons, was used for the cell preparations.
The midbrains were dissociated by trypsinisation for 20 min at 37° C. (solution at a final concentration of 0.05% trypsin and 0.02% EDTA). The reaction was stopped by the addition of Dulbecco's modified Eagle's medium (DMEM) containing DNAase I grade II (0.5 mg/mL) and 10% of foetal calf serum (FCS). Cells were then mechanically dissociated by 3 passages through a 10 ml pipette. Cells were then centrifuged at 180×g for 10 min at +4° C. on a layer of BSA (3.5%) in L15 medium. The supernatant was discarded and the cell pellets re-suspended in a defined culture medium consisting of Neurobasal supplemented with B27 (2%), L-glutamine (2 mM) and 2% of PS solution and 10 ng/mL of Brain-derived neurotrophic factor (BDNF) and 1 ng/mL of Glial-Derived Neurotrophic Factor (GDNF). Viable cells were counted in a Neubauer cytometer using the trypan blue exclusion test. The cells were seeded at a density of 40,000 cells/well in 96 well-plates (pre-coated with poly-L-lysine) and maintained in a humidified incubator at 37° C. in 5% CO2/95% air atmosphere. Half of the medium was changed every 2 days with fresh medium. The wells of first and last lines and columns […] (to avoid any edge effect) and were be filled with sterile water.
Test compounds and MPTP: • i) Pre-incubation. On day 6 of culture, the test compounds were dissolved in PBS or DMSO and incubated for 1 hour before the MPTP exposure. • ii) Injury. One hour after the application of test compound, MPTP was added to a final concentration of 4 μM, diluted in control medium still in presence of compounds/inhibitors for 48h. Test compounds were tested on one culture in 96-well plate (n=6 culture wells per condition).
Immunostaining: TH and α-Synuclein. 48 Hours after intoxication, the cell culture supernatant was removed, and the cells were fixed by a solution of 4% paraformaldehyde in PBS, pH=7.3 for 20 min at room temperature. The cells were washed twice in PBS, and then permeabilized. Non-specific sites were blocked with a solution of PBS containing 0.1% of saponin and 1% FCS for 15 min at room temperature. The cultures were incubated with: (a) monoclonal anti-Tyrosine Hydroxylase (TH) antibody produced in mouse at dilution of 1/10000 in PBS containing 1% FCS, 0.1% saponin, for 2 hours at room temperature, and (b) polyclonal anti-alpha synuclein (α-synuclein) antibody produced in rabbit at dilution of 1/200 in PBS containing 1% FCS, 0.1% saponin, for 2 h at room temperature.
Automatic computer analysis. For each condition, 20 pictures (representing the whole well area) were automatically taken using ImageXpress® (Molecular Devices) at 10× magnification (20 pictures, for TH and α-synuclein into TH neurons) using the same acquisition parameters. From images, analyses was directly and automatically performed by MetaXpress® (Molecular Devices).

In the case of `CC(C)N(C(=O)c1ccc(-c2cnn(-c3ccc(F)cc3)c2)[nH]1)C1CCNCC1` [Compound 310, 5-[1-(4-fluorophenyl)-1H-pyrazol-4-yl]-N-(piperidin-4-yl)-N-(propan-2-yl)-1H-pyrrole-2-carboxamide], the “increase in acidic vesicle formation” value [1] is reported as “only a slight increase”, the “Fold change at compound concentration of 0.8 μM (acidic vesicle formation relative to DMSO-treated control)” value [2] is reported as 1.9 and the “Fold change at compound concentration of 10 μM (acidic vesicle formation relative to DMSO-treated control)” value [2] is reported as 4.5.

With `CC(C)N(C(=O)c1csc(-c2cnn(-c3ccccc3)c2)n1)C1C[C@H]2CNC[C@H]2C1` (stereo partly drawn) [Compound 320, N-[(3aR,6aS)-octahydrocyclopenta[c]pyrrol-5-yl]-2-(1-phenyl-1H-pyrazol-4-yl)-N-(propan-2-yl)-1,3-thiazole-4-carboxamide] the “increase in acidic vesicle formation” value [1] was “only a slight increase”, the “Fold change at compound concentration of 0.8 μM (acidic vesicle formation relative to DMSO-treated control)” value [2] was 1.9 and the “Fold change at compound concentration of 10 μM (acidic vesicle formation relative to DMSO-treated control)” value [2] was 3.3.

In the case of `CC(C)N(C(=O)c1ccc(-c2cnn(-c3ccccc3)c2)[nH]1)[C@@H]1CCNC1` [Compound 313, 5-(1-phenyl-1H-pyrazol-4-yl)-N-(propan-2-yl)-N-[(3R)-pyrrolidin-3-yl]-1H-pyrrole-2-carboxamide], the activation at 0.8 µM [1] is reported as > 100%, the “Fold change at compound concentration of 0.8 μM (acidic vesicle formation relative to DMSO-treated control)” value [2] is reported as 2.0 and the “Fold change at compound concentration of 10 μM (acidic vesicle formation relative to DMSO-treated control)” value [2] is reported as 13.2.

`CC(C)N(C(=O)c1csc(-c2cnn(-c3ccccc3)c2)n1)C1CC2(CNC2)C1` [Compound 319, N-{2-azaspiro[3.3]heptan-6-yl}-2-(1-phenyl-1H-pyrazol-4-yl)-N-(propan-2-yl)-1,3-thiazole-4-carboxamide] was tested, and the activation at 0.8 µM [1] was 30 to 50%, the “Fold change at compound concentration of 0.8 μM (acidic vesicle formation relative to DMSO-treated control)” value [2] was 2.4 and the “Fold change at compound concentration of 10 μM (acidic vesicle formation relative to DMSO-treated control)” value [2] was 2.7.

With `CC(C)N(C(=O)c1csc(-c2cnn(-c3ccccc3)c2)n1)[C@H]1CCNC1` [Compound 311, 2-(1-phenyl-1H-pyrazol-4-yl)-N-(propan-2-yl)-N-[(3S)-pyrrolidin-3-yl]-1,3-thiazole-4-carboxamide] the activation at 0.8 µM [1] was 50 to 100%, the “Fold change at compound concentration of 0.8 μM (acidic vesicle formation relative to DMSO-treated control)” value [2] was 2.3 and the “Fold change at compound concentration of 10 μM (acidic vesicle formation relative to DMSO-treated control)” value [2] was 3.5.

With `CC(C)N(C(=O)c1ccc(-c2cnn(-c3ccccc3)c2)[nH]1)[C@H]1CCNC1` [Compound 314, 5-(1-phenyl-1H-pyrazol-4-yl)-N-(propan-2-yl)-N-[(3S)-pyrrolidin-3-yl]-1H-pyrrole-2-carboxamide] the activation at 0.8 µM [1] was > 100%, the “Fold change at compound concentration of 0.8 μM (acidic vesicle formation relative to DMSO-treated control)” value [2] was 2.0 and the “Fold change at compound concentration of 10 μM (acidic vesicle formation relative to DMSO-treated control)” value [2] was 14.3.

`CC(C)N(C(=O)c1csc(-c2cnn(C)c2)n1)C1CCNCC1` [Compound 392, 2-(1-methyl-1H-pyrazol-4-yl)-N-(piperidin-4-yl)-N-(propan-2-yl)-1,3-thiazole-4-carboxamide] was tested, and the activity at 1 µM [3] was 97% and the activity at 10 µM [3] was 109%.

Molecule `CCN(C(=O)c1csc(-c2cnn(-c3ccccc3)n2)n1)[C@H]1CCNC1` [Compound 364, N-ethyl-2-(2-phenyl-2H-1,2,3-triazol-4-yl)-N-[(3S)-pyrrolidin-3-yl]-1,3-thiazole-4-carboxamide] has an activity at 1 µM [3] of 166%.

With `NC[C@H]1CCCN1C(=O)c1csc(-c2cnn(-c3ccccc3)c2)n1` [Compound 156, 1-[(2R)-1-[2-(1-phenyl-1H-pyrazol-4-yl)-1,3-thiazole-4-carbonyl]pyrrolidin-2-yl]methanamine] the “increase in the length of the neurite network of dopaminergic TH positive neurons compared to the MPP+ injury alone” value ([4]; 1 μM and 500 nM) was > 39%, the “increase in the number of dopaminergic TH positive neurons compared to MPP+ injury alone” value ([4]; 1 μM and 500 nM) was > 18% and the “decrease in α-syn area per dopaminergic TH positive neuron compared to MPP+ injury alone” value ([4]; 1 μM, 500 nM and 100 nM) was > 13%.

`Cc1ccccc1-n1cc(-c2nc(C(=O)N(C(C)C)[C@H]3CCNC3)cs2)cn1` [Compound 397, 2-[1-(2-methylphenyl)-1H-pyrazol-4-yl]-N-(propan-2-yl)-N-[(3S)-pyrrolidin-3-yl]-1,3-thiazole-4-carboxamide] was tested, and the activity at 1 µM [3] was 115% and the activity at 10 µM [3] was 191%.
